PubChem BioAssay (NCI)
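Five concentrations, 48 hours, 96-well plates. Abbreviation: GI50, concentration required for 50% inhibition of growth. TGI: total growth inhibition.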

Legend:
Experiment in all cases: NCI-60 cell line screen, 48 h
M14 melanoma = tested on: M14 melanoma
KM12 colon = tested on: KM12 colon
NCI-H226 lung = tested on: NCI-H226 lung
RPMI-8226 leukemia = tested on: RPMI-8226 leukemia
MDA-MB-231 breast = tested on: MDA-MB-231 breast
DU-145 prostate = tested on: DU-145 prostate
HCC-2998 colon = tested on: HCC-2998 colon
A498 renal = tested on: A498 renal
NCI-H460 lung = tested on: NCI-H460 lung
OVCAR-5 ovarian = tested on: OVCAR-5 ovarian
HL-60(TB) leukemia = tested on: HL-60(TB) leukemia
HOP-62 NSCLC = tested on: HOP-62 NSCLC
SK-MEL-28 melanoma = tested on: SK-MEL-28 melanoma
SNB-19 CNS = tested on: SNB-19 CNS
CCRF-CEM leukemia = tested on: CCRF-CEM leukemia
HS 578T breast = tested on: HS 578T breast
BT-549 breast = tested on: BT-549 breast
UACC-62 melanoma = tested on: UACC-62 melanoma
SR leukemia = tested on: SR leukemia
A549 NSCLC = tested on: A549 NSCLC
NCI-H23 lung = tested on: NCI-H23 lung
HCT-116 colon = tested on: HCT-116 colon
MALME-3M melanoma = tested on: MALME-3M melanoma
SF-268 CNS = tested on: SF-268 CNS
NCI-H522 lung = tested on: NCI-H522 lung
CAKI-1 renal = tested on: CAKI-1 renal
SW-620 colon = tested on: SW-620 colon
SK-OV-3 ovarian = tested on: SK-OV-3 ovarian
HT29 colon = tested on: HT29 colon
OVCAR-3 ovarian = tested on: OVCAR-3 ovarian
MCF7 breast = tested on: MCF7 breast
NCI/ADR-RES ovarian = tested on: NCI/ADR-RES ovarian
MDA-MB-435 = tested on: MDA-MB-435
K-562 leukemia = tested on: K-562 leukemia
SN12C renal = tested on: SN12C renal
SK-MEL-5 melanoma = tested on: SK-MEL-5 melanoma
UO-31 renal = tested on: UO-31 renal
TK-10 renal = tested on: TK-10 renal
OVCAR-4 ovarian = tested on: OVCAR-4 ovarian
IGROV1 ovarian = tested on: IGROV1 ovarian
SK-MEL-2 melanoma = tested on: SK-MEL-2 melanoma
PC-3 prostate = tested on: PC-3 prostate
LOX IMVI melanoma = tested on: LOX IMVI melanoma
SF-539 CNS = tested on: SF-539 CNS
COLO 205 colon = tested on: COLO 205 colon
MOLT-4 leukemia = tested on: MOLT-4 leukemia
786-0 renal = tested on: 786-0 renal
HCT-15 colon = tested on: HCT-15 colon
SF-295 CNS = tested on: SF-295 CNS
RXF 393 renal = tested on: RXF 393 renal
T-47D breast = tested on: T-47D breast
OVCAR-8 ovarian = tested on: OVCAR-8 ovarian
U251 CNS = tested on: U251 CNS
ACHN renal = tested on: ACHN renal
SNB-75 CNS = tested on: SNB-75 CNS
UACC-257 melanoma = tested on: UACC-257 melanoma

Q: With `CCN(c1ccc(CO)c(Cl)c1)C(C)c1ccc(F)cc1` (configuration not stated) as the compound, how does the GI50 (M14 melanoma) read?
A: 17.6 µM

Q: What about the TGI (M14 melanoma) of the same compound?
A: 33.8 µM

Q: What about the GI50 (KM12 colon) of the same compound?
A: 17 µM

Q: And the TGI (KM12 colon)?
A: 32.5 µM

Q: And the GI50 (NCI-H226 lung)?
A: 0.49 µM

Q: And the TGI (NCI-H226 lung)?
A: 2.31 µM

Q: What about the GI50 (RPMI-8226 leukemia) of the same compound?
A: 11.8 µM

Q: What about the TGI (RPMI-8226 leukemia) of the same compound?
A: 39.2 µM

Q: What about the GI50 (MDA-MB-231 breast) of the same compound?
A: 15.3 µM

Q: What about the TGI (MDA-MB-231 breast) of the same compound?
A: 30.1 µM

Q: What about the GI50 (DU-145 prostate) of the same compound?
A: 16.9 µM

Q: What about the TGI (DU-145 prostate) of the same compound?
A: 31.2 µM

Q: And the GI50 (HCC-2998 colon)?
A: 16.6 µM

Q: What about the TGI (HCC-2998 colon) of the same compound?
A: 32.8 µM

Q: What about the GI50 (A498 renal) of the same compound?
A: 0.117 µM

Q: And the TGI (A498 renal)?
A: 0.843 µM

Q: What about the GI50 (NCI-H460 lung) of the same compound?
A: 7.88 µM

Q: And the TGI (NCI-H460 lung)?
A: 23.7 µM

Q: And the GI50 (OVCAR-5 ovarian)?
A: 2.97 µM

Q: What about the TGI (OVCAR-5 ovarian) of the same compound?
A: 11.9 µM

Q: And the GI50 (HL-60(TB) leukemia)?
A: 17.9 µM

Q: And the TGI (HL-60(TB) leukemia)?
A: 38.1 µM

Q: And the GI50 (HOP-62 NSCLC)?
A: 16.2 µM

Q: And the TGI (HOP-62 NSCLC)?
A: 30.2 µM

Q: What about the GI50 (SK-MEL-28 melanoma) of the same compound?
A: 16.1 µM

Q: And the TGI (SK-MEL-28 melanoma)?
A: 30.6 µM

Q: And the GI50 (SNB-19 CNS)?
A: 16 µM

Q: And the TGI (SNB-19 CNS)?
A: 30.5 µM

Q: What about the GI50 (CCRF-CEM leukemia) of the same compound?
A: 18 µM

Q: What about the TGI (CCRF-CEM leukemia) of the same compound?
A: 41.2 µM

Q: What about the GI50 (HS 578T breast) of the same compound?
A: 16.9 µM

Q: And the TGI (HS 578T breast)?
A: 40.2 µM

Q: And the GI50 (BT-549 breast)?
A: 15.5 µM

Q: And the TGI (BT-549 breast)?
A: 29.6 µM

Q: What about the GI50 (UACC-62 melanoma) of the same compound?
A: 3.79 µM

Q: And the TGI (UACC-62 melanoma)?
A: 16.9 µM

Q: What about the GI50 (SR leukemia) of the same compound?
A: 19.8 µM

Q: What about the TGI (SR leukemia) of the same compound?
A: 43.1 µM

Q: And the GI50 (A549 NSCLC)?
A: 13.1 µM

Q: And the TGI (A549 NSCLC)?
A: 27.9 µM

Q: And the GI50 (NCI-H23 lung)?
A: 14 µM

Q: And the TGI (NCI-H23 lung)?
A: 30.5 µM

Q: And the GI50 (HCT-116 colon)?
A: 4.22 µM

Q: What about the TGI (HCT-116 colon) of the same compound?
A: 17.4 µM

Q: What about the GI50 (MALME-3M melanoma) of the same compound?
A: 16.7 µM

Q: And the TGI (MALME-3M melanoma)?
A: 31.8 µM

Q: And the GI50 (SF-268 CNS)?
A: 17 µM

Q: What about the TGI (SF-268 CNS) of the same compound?
A: 31.9 µM

Q: What about the GI50 (NCI-H522 lung) of the same compound?
A: 12.7 µM

Q: And the TGI (NCI-H522 lung)?
A: 26.7 µM

Q: And the GI50 (CAKI-1 renal)?
A: 8.46 µM

Q: What about the TGI (CAKI-1 renal) of the same compound?
A: 21.7 µM

Q: And the GI50 (SW-620 colon)?
A: 14.1 µM

Q: And the TGI (SW-620 colon)?
A: 30.2 µM

Q: What about the GI50 (SK-OV-3 ovarian) of the same compound?
A: 15.7 µM

Q: And the TGI (SK-OV-3 ovarian)?
A: 29.2 µM

Q: And the GI50 (HT29 colon)?
A: 15.5 µM

Q: What about the TGI (HT29 colon) of the same compound?
A: 30 µM

Q: And the GI50 (OVCAR-3 ovarian)?
A: 13.7 µM

Q: And the TGI (OVCAR-3 ovarian)?
A: 27.3 µM

Q: And the GI50 (MCF7 breast)?
A: 12.5 µM

Q: What about the TGI (MCF7 breast) of the same compound?
A: 27.1 µM

Q: And the GI50 (NCI/ADR-RES ovarian)?
A: 14.5 µM

Q: What about the TGI (NCI/ADR-RES ovarian) of the same compound?
A: 31.2 µM

Q: What about the GI50 (MDA-MB-435) of the same compound?
A: 17.3 µM

Q: What about the TGI (MDA-MB-435) of the same compound?
A: 32.5 µM

Q: And the GI50 (K-562 leukemia)?
A: 9.86 µM

Q: And the TGI (K-562 leukemia)?
A: 24.7 µM

Q: What about the GI50 (SN12C renal) of the same compound?
A: 14.2 µM

Q: And the TGI (SN12C renal)?
A: 28.5 µM

Q: What about the GI50 (SK-MEL-5 melanoma) of the same compound?
A: 14.5 µM

Q: And the TGI (SK-MEL-5 melanoma)?
A: 28 µM

Q: What about the GI50 (UO-31 renal) of the same compound?
A: 15.3 µM

Q: And the TGI (UO-31 renal)?
A: 29.1 µM

Q: And the GI50 (TK-10 renal)?
A: 1.12 µM

Q: What about the TGI (TK-10 renal) of the same compound?
A: 6.11 µM

Q: And the GI50 (OVCAR-4 ovarian)?
A: 7.97 µM

Q: And the TGI (OVCAR-4 ovarian)?
A: 20.7 µM

Q: And the GI50 (IGROV1 ovarian)?
A: 0.891 µM

Q: What about the TGI (IGROV1 ovarian) of the same compound?
A: 4 µM

Q: What about the GI50 (SK-MEL-2 melanoma) of the same compound?
A: 13.2 µM

Q: What about the TGI (SK-MEL-2 melanoma) of the same compound?
A: 28 µM

Q: And the GI50 (PC-3 prostate)?
A: 13.1 µM

Q: And the TGI (PC-3 prostate)?
A: 26.7 µM

Q: And the GI50 (LOX IMVI melanoma)?
A: 17.1 µM

Q: What about the TGI (LOX IMVI melanoma) of the same compound?
A: 32.9 µM

Q: What about the GI50 (SF-539 CNS) of the same compound?
A: 16.5 µM

Q: And the TGI (SF-539 CNS)?
A: 30.8 µM

Q: And the GI50 (COLO 205 colon)?
A: 18.9 µM

Q: What about the TGI (COLO 205 colon) of the same compound?
A: 35.5 µM

Q: What about the GI50 (MOLT-4 leukemia) of the same compound?
A: 19.3 µM

Q: And the TGI (MOLT-4 leukemia)?
A: 40 µM

Q: And the GI50 (786-0 renal)?
A: 16.4 µM

Q: What about the TGI (786-0 renal) of the same compound?
A: 30.4 µM

Q: And the GI50 (HCT-15 colon)?
A: 13.7 µM

Q: And the TGI (HCT-15 colon)?
A: 28.9 µM

Q: And the GI50 (SF-295 CNS)?
A: 11.5 µM

Q: And the TGI (SF-295 CNS)?
A: 24.3 µM

Q: And the GI50 (RXF 393 renal)?
A: 11 µM

Q: What about the TGI (RXF 393 renal) of the same compound?
A: 26 µM

Q: And the GI50 (T-47D breast)?
A: 4.22 µM

Q: And the TGI (T-47D breast)?
A: 18.2 µM

Q: And the GI50 (OVCAR-8 ovarian)?
A: 14.1 µM

Q: And the TGI (OVCAR-8 ovarian)?
A: 30.2 µM

Q: And the GI50 (U251 CNS)?
A: 9 µM

Q: And the TGI (U251 CNS)?
A: 22 µM

Q: What about the GI50 (ACHN renal) of the same compound?
A: 14.2 µM

Q: And the TGI (ACHN renal)?
A: 27.7 µM

Q: And the GI50 (SNB-75 CNS)?
A: 13 µM

Q: And the TGI (SNB-75 CNS)?
A: 26.8 µM

Q: What about the GI50 (UACC-257 melanoma) of the same compound?
A: 2.8 µM

Q: And the TGI (UACC-257 melanoma)?
A: 12.8 µM
